{
  "source": "patent US20160354300A1",
  "about": "“Low Viscosity Hair Care Composition” (The Procter & Gamble Company, priority 2015, published 2016)",
  "key": {"[1]": {"test": "Visual cloudiness of surfactant formulation with added agent after 20:1 dilution with water", "type": "physicochemical", "design": "key: Samples that appeared cloudy (turbid) within less than a day were noted as cloudy (“Yes”); Samples that did not appear cloudy (turbid) within less than a day were noted as not cloudy (“No”)", "conditions": "0.5 g formula, 10 ml deionized water; for Cloudy at 1:20 dilution at 2%, 4%, and/or 6%: Table 3, visual, within less than a day; for Added at 2%: cloudy at 20:1 dilution: agent at 2%; for Added at 4%: cloudy at 20:1 dilution: agent at 4%; for Added at 6%: cloudy at 20:1 dilution: agent at 6%; for Added at 8%: cloudy at 20:1 dilution: agent at 8%", "experimental": "Now referring to Tables 3 and 4, the following surfactant formulations were made by mixing 1.6% perfume, 24% sodium undecyl sulfate (CAS#1072-24-8) active, 6% lauramidopropyl betaine (CAS#4292-10-8) active, and 60.4% deionized water which leaves 8% unfilled for the addition of the listed agents (the balance being filled in by distilled water). The agents were added at a percentage of 2%, 4%, 6%, and 8% into the above surfactant formulation. The resulting formulations were vortexed and put into oven at 60° C. overnight to form homogeneous solution. For all formulations, the surfactant, water and additives, including the added agents, were expected to be in a single phase.\nThe resulting formulations were weighed out in a scintillation vial combined with 10 ml of water to achieve a representative dilution during use: 0.5 g formula, 10 ml deionized water for 20:1 dilution. After the combination of the ingredients, the vial was vigorously shaken by hand and the samples were visually inspected by looking at the solution against a dark background. Samples that appeared cloudy (turbid) within less than a day were noted as cloudy (“Yes”). […] Samples that appeared cloudy at the 20:1 dilution for any of the 2%, 4% or 6% concentration of oil may be most desirable by requiring a limited amount of the agent to be added, limiting cost and trade-offs associated with higher levels.\nThe appearance of a cloudy formulation at 1:20 dilution at 2%, 4%, and/or 6% can signal improved deposition of surfactant soluble active agents during consumer use."}, "[2]": {"test": "Kinematic viscosity at 40 C of surfactant base formulation with added agent (Cannon viscometer)", "type": "physicochemical", "conditions": "for Lowest viscosity achieved (cSt): Table 1, base formulation 24% sodium undecyl sulfate, 6% lauramidopropyl betaine, 1.6% perfume, agent at 2%, 4%, 6%, 8%, 40° C.; for Kinematic viscosity at 40 C. [cSt], 2% oil: agent added at 2% to base formulation; for Kinematic viscosity at 40 C. [cSt], 4% oil: agent added at 4% to base formulation; for Kinematic viscosity at 40 C. [cSt], 6% oil: agent added at 6% to base formulation; for Kinematic viscosity at 40 C. [cSt], 8% oil: agent added at 8% to base formulation", "description": "Referring to Tables 1 and 2, the base formulations were made by mixing 1.6% perfume, 24% sodium undecyl sulfate (CAS#1072-24-8) active, 6% lauramidopropyl betaine (CAS#4292-10-8) active and 60.4% deionized water which leaves 8% unfilled for the addition of a viscosity reducing agent (the balance being filled in by distilled water). For all compositions, the surfactant, water and additives including viscosity reducing agents were expected to be in a single phase.\nThe agents from Tables 1 and 2 were added to the base formulation at a percentage of 2%, 4%, 6%, and 8% into the above surfactant solution. The subsequent formulations were vortexed and put into oven at 60° C. overnight to form homogeneous solution. The viscosities of the formulations were measured with calibrated viscometers (Size 200/350/450) from Cannon Instrument Company (2139 High Tech Road, State College, Pa., USA, 16803).\nAfter the equilibration, the formulations were drawn to reach the starting mark with a rubber suction bulb and the flow time between the starting mark and end mark was recorded for calculation. Each formulation was measured three times to calculate average and standard deviation. Between samples, viscometer was cleaned with water and acetone to rinse off residual.\nViscosity values were calculated based on the equation:\nViscosity (mm^2/s·(cSt))=Time (s)*Constant (mm^2/s^2·(cSt/s))\nThe time in the above equation is the flow time recorded in the experiment and the constant numbers for each calibrated viscometer were obtained from the manuals. […]\nThe viscosities of the formulations are measured with calibrated viscometers (Size 200/350/450) from Cannon Instrument Company (2139 High Tech Road, State College, Pa., USA, 16803). Prior to the measurement, the formulations are equilibrated in the viscometer reservoir for 30 min at 40° C. in water bath to ensure a homogeneous temperature is reached in the system. […]"}},
  "data": [
    {"compound": "CC(C)CCOC(=O)c1ccccc1O", "note": "[Isoamyl Salicylate]", "values": [
      {"measurement": "Cloudy at 1:20 dilution at 2%, 4%, and/or 6%", "setting": "[1]", "result": "Yes"},
      {"measurement": "Added at 2%: cloudy at 20:1 dilution", "setting": "[1]", "result": "No"},
      {"measurement": "Added at 4%: cloudy at 20:1 dilution", "setting": "[1]", "result": "Yes"},
      {"measurement": "Lowest viscosity achieved (cSt)", "setting": "[2]", "result": 193, "unit": "cSt"},
      {"measurement": "Kinematic viscosity at 40 C. [cSt], 2% oil", "setting": "[2]", "result": 460.3, "unit": "cSt"},
      {"measurement": "Kinematic viscosity at 40 C. [cSt], 4% oil", "setting": "[2]", "result": 193.2, "unit": "cSt"}
    ]},
    {"compound": "CC(C)=CCC/C(C)=C/COC(=O)Cc1ccccc1", "note": "[Geranyl Phenyl Acetate]", "values": [
      {"measurement": "Cloudy at 1:20 dilution at 2%, 4%, and/or 6%", "setting": "[1]", "result": "Yes"},
      {"measurement": "Added at 2%: cloudy at 20:1 dilution", "setting": "[1]", "result": "Yes"},
      {"measurement": "Added at 4%: cloudy at 20:1 dilution", "setting": "[1]", "result": "Yes"},
      {"measurement": "Added at 6%: cloudy at 20:1 dilution", "setting": "[1]", "result": "Yes"},
      {"measurement": "Added at 8%: cloudy at 20:1 dilution", "setting": "[1]", "result": "Yes"},
      {"measurement": "Lowest viscosity achieved (cSt)", "setting": "[2]", "result": 34, "unit": "cSt"},
      {"measurement": "Kinematic viscosity at 40 C. [cSt], 2% oil", "setting": "[2]", "result": 224.0, "unit": "cSt"},
      {"measurement": "Kinematic viscosity at 40 C. [cSt], 4% oil", "setting": "[2]", "result": 76.0, "unit": "cSt"},
      {"measurement": "Kinematic viscosity at 40 C. [cSt], 6% oil", "setting": "[2]", "result": 34.3, "unit": "cSt"},
      {"measurement": "Kinematic viscosity at 40 C. [cSt], 8% oil", "setting": "[2]", "result": 36.6, "unit": "cSt"}
    ]},
    {"compound": "CC12CCC(CC1)C(C)(C)O2", "note": "[Eucalyptol]", "values": [
      {"measurement": "Cloudy at 1:20 dilution at 2%, 4%, and/or 6%", "setting": "[1]", "result": "No"},
      {"measurement": "Added at 2%: cloudy at 20:1 dilution", "setting": "[1]", "result": "No"},
      {"measurement": "Added at 4%: cloudy at 20:1 dilution", "setting": "[1]", "result": "No"},
      {"measurement": "Added at 6%: cloudy at 20:1 dilution", "setting": "[1]", "result": "No"},
      {"measurement": "Lowest viscosity achieved (cSt)", "setting": "[2]", "result": 203, "unit": "cSt"},
      {"measurement": "Kinematic viscosity at 40 C. [cSt], 2% oil", "setting": "[2]", "result": 527.3, "unit": "cSt"},
      {"measurement": "Kinematic viscosity at 40 C. [cSt], 4% oil", "setting": "[2]", "result": 292.9, "unit": "cSt"},
      {"measurement": "Kinematic viscosity at 40 C. [cSt], 6% oil", "setting": "[2]", "result": 203.1, "unit": "cSt"}
    ]},
    {"compound": "CCCCCCCCCCCCCC(=O)OC(C)C", "note": "[Iso Propyl Myristate]", "values": [
      {"measurement": "Cloudy at 1:20 dilution at 2%, 4%, and/or 6%", "setting": "[1]", "result": "Yes"},
      {"measurement": "Added at 2%: cloudy at 20:1 dilution", "setting": "[1]", "result": "No"},
      {"measurement": "Added at 4%: cloudy at 20:1 dilution", "setting": "[1]", "result": "No"},
      {"measurement": "Added at 6%: cloudy at 20:1 dilution", "setting": "[1]", "result": "Yes"},
      {"measurement": "Added at 8%: cloudy at 20:1 dilution", "setting": "[1]", "result": "Yes"},
      {"measurement": "Lowest viscosity achieved (cSt)", "setting": "[2]", "result": 30, "unit": "cSt"},
      {"measurement": "Kinematic viscosity at 40 C. [cSt], 2% oil", "setting": "[2]", "result": 234.2, "unit": "cSt"},
      {"measurement": "Kinematic viscosity at 40 C. [cSt], 4% oil", "setting": "[2]", "result": 53.7, "unit": "cSt"},
      {"measurement": "Kinematic viscosity at 40 C. [cSt], 6% oil", "setting": "[2]", "result": 30.4, "unit": "cSt"},
      {"measurement": "Kinematic viscosity at 40 C. [cSt], 8% oil", "setting": "[2]", "result": 45.0, "unit": "cSt"}
    ]},
    {"compound": "CC(C)CC=C(C=O)C(C)C", "note": "[2-Isopropyl-5-methyl-2-hexenal]", "values": [
      {"measurement": "Cloudy at 1:20 dilution at 2%, 4%, and/or 6%", "setting": "[1]", "result": "No"},
      {"measurement": "Added at 2%: cloudy at 20:1 dilution", "setting": "[1]", "result": "No"},
      {"measurement": "Added at 4%: cloudy at 20:1 dilution", "setting": "[1]", "result": "No"},
      {"measurement": "Lowest viscosity achieved (cSt)", "setting": "[2]", "result": 332, "unit": "cSt"},
      {"measurement": "Kinematic viscosity at 40 C. [cSt], 2% oil", "setting": "[2]", "result": 332.3, "unit": "cSt"}
    ]}
  ]
}
